Results published in publication PMC9894920, “Development of an improved and specific inhibitor of NADPH oxidase 2 to treat traumatic brain injury” (Redox Biology, 2023).
≈ marks a conversion by molar mass, not a printed value. Read-outs that look alike come from different tables or passages of the source.

Assays:
[1] = Rat liver microsomal stability; assay type: in vitro ADME; details: for half-life: SD, rat, liver microsomes, read-out: Rat_SD/Microsomes t1/2 (m)
Protocol: (§1) The rat liver microsomal stability, parallel artificial membrane permeability assay (PAMPA), and aqueous kinetic solubility assay in phosphate-buffered saline (PBS) buffer were performed as described in the indicated references.

[2] = Aqueous kinetic solubility in PBS buffer; assay type: physicochemical
Protocol: as §1

[3] = Parallel artificial membrane permeability assay (PAMPA); assay type: in vitro ADME; details: for Papp: pH 7.4, PAMPA, pH7.4, read-out: Permeability(pH7.4) (PAMPA_Pion_Lipid 1e-6 cm/s)
Protocol: as §1

[4] = target: T1, Bovine Xanthine Oxidase (Bos taurus, UniProt P80457); experiment: Xanthine oxidase / hypoxanthine luminol chemiluminescence assay; assay type: biochemical; details: xanthine oxidase with hypoxanthine; mean ± SD, n in cell; read-out: X/XO IC50
T1 construct: purchased Sigma
Protocol: Bovine Xanthine Oxidase (Sigma) was dialyzed in PBS to remove ammonium sulfate and stored at 4 °C. Hypoxanthine was prepared by heating in DMSO. Reactions were prepared by diluting xanthine oxidase in HBSS (final concentration 1.25 mU/mL) that contained 50 μM luminol and were preincubated 5 min with control or inhibitor before the addition of hypoxanthine at a final concentration of 0.5 mM. Luminescence was measured at 24 °C as described above.

[5] = target: T2, NOX2 (Homo sapiens, UniProt P04839); experiment: NOX2 activity in primary human granulocytes (PMN), luminol chemiluminescence; assay type: cell-based; parameters: When tested against NOX2 in primary human neutrophils; endogenous in cells; host or cells: primary human granulocytes (PMN) from donor blood; details: mean ± SD, n in cell; read-out: NOX-2 IC50 from PMN
T2 sequence (P04839 2-570 limits assumed): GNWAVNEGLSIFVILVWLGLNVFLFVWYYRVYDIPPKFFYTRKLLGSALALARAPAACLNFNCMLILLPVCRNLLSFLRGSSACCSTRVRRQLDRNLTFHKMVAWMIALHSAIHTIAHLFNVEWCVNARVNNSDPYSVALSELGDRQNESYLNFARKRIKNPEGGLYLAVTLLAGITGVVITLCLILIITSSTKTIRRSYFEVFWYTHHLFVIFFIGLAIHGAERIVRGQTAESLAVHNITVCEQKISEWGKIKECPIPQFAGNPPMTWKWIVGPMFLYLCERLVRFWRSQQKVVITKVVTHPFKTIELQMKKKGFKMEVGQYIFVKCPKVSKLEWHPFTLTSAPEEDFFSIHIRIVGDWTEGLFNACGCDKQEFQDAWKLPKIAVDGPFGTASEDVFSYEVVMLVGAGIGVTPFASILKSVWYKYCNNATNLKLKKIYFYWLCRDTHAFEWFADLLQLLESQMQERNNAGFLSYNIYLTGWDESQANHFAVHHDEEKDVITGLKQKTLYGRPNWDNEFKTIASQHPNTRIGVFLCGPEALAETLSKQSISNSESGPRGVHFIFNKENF
T2 sequence (P13498 2-195 partner limits assumed): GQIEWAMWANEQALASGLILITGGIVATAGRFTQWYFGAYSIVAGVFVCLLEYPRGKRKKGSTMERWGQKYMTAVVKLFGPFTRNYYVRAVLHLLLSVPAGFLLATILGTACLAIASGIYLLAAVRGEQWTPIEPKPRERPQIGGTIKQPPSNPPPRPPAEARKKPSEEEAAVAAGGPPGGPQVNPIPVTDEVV
Protocol: Human blood was obtained after informed consent by the Department of Transfusion Medicine (NIH Clinical Center) and provided as de-identified specimens. Human granulocytes were isolated using Percoll density fractionation as described and NOX2 activity was assessed in white polypropylene flat bottom 96 well plates following 15 min of preincubation at 37 °C with compounds or vehicle controls using 50 μM luminol as a chemiluminescence enhancer in an assay volume of 100 μl RPMI1640 with 1.1 × 10^5 cells/well in Varioskan Lux luminometer for 30 cycles of 1 s per well (approximately 1 h).

[6] = aqueous buffer, kinetic from dmso stock, read-out: Solubility

T1 sequence (P80457 whole entry): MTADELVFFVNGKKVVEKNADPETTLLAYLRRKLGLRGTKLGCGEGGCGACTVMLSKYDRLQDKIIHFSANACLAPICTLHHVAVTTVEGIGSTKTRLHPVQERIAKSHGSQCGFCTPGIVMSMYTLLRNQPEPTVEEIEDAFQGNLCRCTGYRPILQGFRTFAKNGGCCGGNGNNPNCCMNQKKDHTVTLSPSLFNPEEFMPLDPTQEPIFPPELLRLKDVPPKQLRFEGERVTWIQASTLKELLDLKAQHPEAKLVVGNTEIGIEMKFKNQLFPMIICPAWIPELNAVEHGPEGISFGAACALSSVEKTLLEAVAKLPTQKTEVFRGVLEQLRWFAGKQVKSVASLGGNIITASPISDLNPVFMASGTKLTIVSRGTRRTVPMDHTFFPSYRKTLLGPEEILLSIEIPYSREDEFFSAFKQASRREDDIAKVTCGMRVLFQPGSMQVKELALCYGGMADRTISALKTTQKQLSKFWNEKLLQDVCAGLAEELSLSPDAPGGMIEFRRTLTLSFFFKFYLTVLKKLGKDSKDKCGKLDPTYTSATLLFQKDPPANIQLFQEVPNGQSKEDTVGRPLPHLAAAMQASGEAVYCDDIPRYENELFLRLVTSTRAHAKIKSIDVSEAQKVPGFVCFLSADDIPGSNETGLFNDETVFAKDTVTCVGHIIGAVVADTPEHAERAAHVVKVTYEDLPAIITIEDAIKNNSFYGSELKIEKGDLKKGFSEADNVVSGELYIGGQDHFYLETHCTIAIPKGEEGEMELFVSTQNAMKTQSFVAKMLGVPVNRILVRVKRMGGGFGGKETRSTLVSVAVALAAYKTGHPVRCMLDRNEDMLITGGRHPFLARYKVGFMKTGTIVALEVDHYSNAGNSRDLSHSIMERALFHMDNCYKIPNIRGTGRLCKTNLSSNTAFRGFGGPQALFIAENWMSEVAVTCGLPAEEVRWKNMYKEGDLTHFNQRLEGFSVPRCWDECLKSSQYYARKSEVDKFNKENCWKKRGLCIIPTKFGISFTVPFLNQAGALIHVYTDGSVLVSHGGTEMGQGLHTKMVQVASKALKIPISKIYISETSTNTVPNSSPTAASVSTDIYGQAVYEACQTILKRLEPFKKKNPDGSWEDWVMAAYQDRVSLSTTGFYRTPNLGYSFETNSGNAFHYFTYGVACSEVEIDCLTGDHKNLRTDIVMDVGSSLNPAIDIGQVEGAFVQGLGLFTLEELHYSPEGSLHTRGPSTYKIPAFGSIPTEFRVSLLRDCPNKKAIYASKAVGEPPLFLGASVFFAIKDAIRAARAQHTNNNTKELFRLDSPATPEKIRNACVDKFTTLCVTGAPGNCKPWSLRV

| half-life [1] | solubility [2, 6] | Papp [3] | IC50 [4] | IC50 [5] | Structure (SMILES) | Rat_SD/Microsomes t1/2 (m) [1] | solubility [2] | Permeability(pH7.4) (PAMPA_Pion_Lipid 1e-6 cm/s) [3] |
| --- | --- | --- | --- | --- | --- | --- | --- | --- |
| 17.9 min | > 68 µg/mL | 4 ×10⁻⁶ cm/s | 2290 ± 3230 nM | 1610 nM | CNC1CCc2ccc(-c3cn(C4CC4)c4nccc(N[S+](=O)([O-])c5ccn(C)n5)c34)cc21 (stereo not shown) [NCGC00650057, CNC1CCC2=C1C=C(C=C2)C3=CN(C4CC4)C5=NC=CC(N[S+]([O-])(=O)C6=NN(C)C=C6)=C35] |  |  |  |
| 11.8 min | > 66 µg/mL | 72.8 ×10⁻⁶ cm/s | 2340 ± 2320 nM | 4250 nM | Cn1ccc([S+](=O)([O-])Nc2ccnc3c2c(-c2ccc4c(c2)C(=O)CC4)cn3C2CC2)n1 [NCGC00650061, CN1C=CC(=N1)[S+]([O-])(=O)NC2=C3C(=CN(C4CC4)C3=NC=C2)C5=CC6=C(CCC6=O)C=C5] |  |  |  |
|  |  |  | 3110 nM | > 20000 nM | Cn1ccc([S+](=O)([O-])Nc2ccnc3c2c(-c2ccc4c(c2)C(=O)CC4)cn3C2CC2)n1 [NCGC00650062, CN1C=CC(=N1)[S+]([O-])(=O)NC2=C3C(=CN(C4CC4)C3=NC=C2)C5=CC6=C(CCC6=O)C=C5] | 17.3 m | 38.6 µg/mL (≈ 86.3 µM) | 88.1 1e-6 cm/s |
| 1.1 min | 1.4 µg/mL (≈ 2.87 µM) | 1230 ×10⁻⁶ cm/s | 360 ± 510 nM | 3020 ± 2960 nM | Cn1ccc([S+](=O)([O-])Nc2ccnc3c2c(-c2ccc4c(c2)N(C2CC2)CC4)cn3CC2CC2)n1 [NCGC00650063, CN1C=CC(=N1)[S+]([O-])(=O)NC2=C3C(=CN(CC4CC4)C3=NC=C2)C5=CC6=C(CCN6C7CC7)C=C5] |  |  |  |
| 6.9 min | 35.9 µg/mL (≈ 75.5 µM) | 386 ×10⁻⁶ cm/s | > 20000 nM |  | O=[S+]([O-])(Nc1ccnc2c1c(-c1ccc3c(c1)C(O)CC3)cn2C1CC1)c1ccn(C2CC2)n1 (stereo not shown) [NCGC00650064, OC1CCC2=C1C=C(C=C2)C3=CN(C4CC4)C5=NC=CC(N[S+]([O-])(=O)C6=NN(C=C6)C7CC7)=C35] |  |  |  |
|  | 5.3 µg/mL (≈ 9.99 µM) | 160 ×10⁻⁶ cm/s | 4070 ± 5430 nM | 2050 nM | Cn1ccc([S+](=O)([O-])Nc2ccnc3c2c(-c2ccc4c(c2)N(C2CC2)CC4)cn3CC2CCCCC2)n1 [NCGC00650102, CN1C=CC(=N1)[S+]([O-])(=O)NC2=C3C(=CN(CC4CCCCC4)C3=NC=C2)C5=CC6=C(CCN6C7CC7)C=C5] |  |  |  |
| 4.6 min | 8.2 µg/mL (≈ 15.3 µM) |  | > 20000 nM | 3930 nM | Cn1ccc([S+](=O)([O-])Nc2ccnc3c2c(-c2ccc4c(c2)N(C(=O)OC(C)(C)C)CC4)cn3C2CC2)n1 [NCGC00650103, CN1C=CC(=N1)[S+]([O-])(=O)NC2=C3C(=CN(C4CC4)C3=NC=C2)C5=CC6=C(CCN6C(=O)OC(C)(C)C)C=C5] |  |  |  |

Continued, compound first:

| Structure (SMILES) | half-life [1] | solubility [2, 6] | Papp [3] | IC50 [4] | IC50 [5] | Rat_SD/Microsomes t1/2 (m) [1] | solubility [2] | Permeability(pH7.4) (PAMPA_Pion_Lipid 1e-6 cm/s) [3] |
| --- | --- | --- | --- | --- | --- | --- | --- | --- |
| CC(C)n1cc(-c2ccc3c(c2)N(C)CC3)c2c(N[S+](=O)([O-])c3ccn(C)n3)ccnc21 [NCGC00507962, CC(C)[N]1C=C(C2=CC3=C(CCN3C)C=C2)C4=C(N[S+]([O-])(=O)C5=N[N](C)C=C5)C=CN=C14] | 1.1 min | 36.7 µg/mL (≈ 81.5 µM) | 1030 ×10⁻⁶ cm/s |  |  |  |  |  |
| CC(n1cc(-c2ccc3ccn(C)c3c2)c2c(N[S+](=O)([O-])c3ccn(C)n3)ccnc21)C(F)(F)F (stereo not shown) [NCGC00600714, CC(N1C=C(C2=C(N[S+]([O-])(=O)C3=NN(C)C=C3)C=CN=C12)C4=CC5=C(C=CN5C)C=C4)C(F)(F)F] | 7.7 min | < 1 µg/mL | 479 ×10⁻⁶ cm/s | 4700 nM | 328 nM |  |  |  |
| CC(n1cc(-c2ccc3c(c2)N(C)CC3)c2c(N[S+](=O)([O-])c3ccn(C)n3)ccnc21)C(F)(F)F (stereo not shown) [NCGC00600887, CC(N1C=C(C2=C(N[S+]([O-])(=O)C3=NN(C)C=C3)C=CN=C12)C4=CC5=C(CCN5C)C=C4)C(F)(F)F] | 3.3 min | 21.9 µg/mL (≈ 43.4 µM) | 629 ×10⁻⁶ cm/s | 872 nM | 541 nM |  |  |  |
| CN1CCc2ccc(-c3cn(C4CC4)c4nccc(N[S+](=O)([O-])c5ccn(C)n5)c34)cc21 [NCGC00600897, CN1C=CC(=N1)[S+]([O-])(=O)NC2=C3C(=CN(C4CC4)C3=NC=C2)C5=CC6=C(CCN6C)C=C5] | 1.7 min | > 66 µg/mL | 171 ×10⁻⁶ cm/s | 1380 ± 1160 nM |  |  |  |  |
| CN1CCc2ccc(-c3cn(CC(F)(F)F)c4nccc(N[S+](=O)([O-])c5ccn(C)n5)c34)cc21 [NCGC00600903, CN1C=CC(=N1)[S+]([O-])(=O)NC2=C3C(=CN(CC(F)(F)F)C3=NC=C2)C4=CC5=C(CCN5C)C=C4] | 3.3 min | 12.2 µg/mL (≈ 24.9 µM) | 53.6 ×10⁻⁶ cm/s | 56 ± 79 nM | 1680 ± 2070 nM |  |  |  |
| Cn1ccc([S+](=O)([O-])Nc2ccnc3c2c(-c2ccc4c(c2)NCC4)cn3C2CC2)n1 [NCGC00601851, CN1C=CC(=N1)[S+]([O-])(=O)NC2=C3C(=CN(C4CC4)C3=NC=C2)C5=CC6=C(CCN6)C=C5] | 4.5 min | > 64 µg/mL | 191 ×10⁻⁶ cm/s | 7520 ± 10500 nM | 1530 ± 1360 nM |  |  |  |
| Cn1ccc([S+](=O)([O-])Nc2ccnc3c2c(-c2ccc4c(c2)C(NC(=O)OC(C)(C)C)CC4)cn3C2CC2)n1 (stereo not shown) [NCGC00650021, CN1C=CC(=N1)[S+]([O-])(=O)NC2=C3C(=CN(C4CC4)C3=NC=C2)C5=CC6=C(CCC6NC(=O)OC(C)(C)C)C=C5] | 5.7 min | 26.2 µg/mL (≈ 47.8 µM) | 1940 ×10⁻⁶ cm/s | 4430 nM | 2420 nM |  |  |  |
| Cn1ccc([S+](=O)([O-])Nc2ccnc3c2c(-c2ccc4c(c2)C(N)CC4)cn3C2CC2)n1 (stereo not shown) [NCGC00650025, CN1C=CC(=N1)[S+]([O-])(=O)NC2=C3C(=CN(C4CC4)C3=NC=C2)C5=CC6=C(CCC6N)C=C5] | 14.5 min | 24 µg/mL (≈ 53.5 µM) | 13 ×10⁻⁶ cm/s | > 20000 nM | 447 nM |  |  |  |
| Cn1ccc([S+](=O)([O-])Nc2ccnc3c2c(-c2ccc4c(c2)CCC4)cn3C2CC2)n1 [NCGC00650026, CN1C=CC(=N1)[S+]([O-])(=O)NC2=C3C(=CN(C4CC4)C3=NC=C2)C5=CC6=C(CCC6)C=C5] | 0.9 min | 1 µg/mL (≈ 2.31 µM) | 1420 ×10⁻⁶ cm/s | > 20000 nM | 3100 ± 2590 nM |  |  |  |
| Cn1ccc([S+](=O)([O-])Nc2ccnc3c2c(-c2ccc4c(c2)N(C2CC2)C(=O)C42CC2)cn3C2CC2)n1 [NCGC00650040, CN1C=CC(=N1)[S+]([O-])(=O)NC2=C3C(=CN(C4CC4)C3=NC=C2)C5=CC6=C(C=C5)C7(CC7)C(=O)N6C8CC8] | > 30 min | 22.9 µg/mL (≈ 44.5 µM) | 249 ×10⁻⁶ cm/s | 4210 ± 550 nM | 15200 nM |  |  |  |
| O=C1N(C2CC2)c2cc(-c3cn(C4CC4)c4nccc(N[S+](=O)([O-])c5ccn(C6CC6)n5)c34)ccc2C12CC2 [NCGC00650041, [O-][S+](=O)(NC1=C2C(=CN(C3CC3)C2=NC=C1)C4=CC5=C(C=C4)C6(CC6)C(=O)N5C7CC7)C8=NN(C=C8)C9CC9] | 6.2 min | 2 µg/mL (≈ 3.7 µM) | 615 ×10⁻⁶ cm/s | 180 nM |  |  |  |  |
| Cn1ccc([S+](=O)([O-])Nc2ccnc3c2c(-c2ccc4ccn(C)c4c2)cn3C2CC2)n1 [NCGC00650045, CN1C=CC(=N1)[S+]([O-])(=O)NC2=C3C(=CN(C4CC4)C3=NC=C2)C5=CC6=C(C=CN6C)C=C5] | 1 min | 2.2 µg/mL (≈ 4.93 µM) |  |  | > 20000 nM |  |  |  |
| O=C1CCc2ccc(-c3cn(C4CC4)c4nccc(N[S+](=O)([O-])c5ccn(C6CC6)n5)c34)cc21 [NCGC00650069, [O-][S+](=O)(NC1=C2C(=CN(C3CC3)C2=NC=C1)C4=CC5=C(CCC5=O)C=C4)C6=NN(C=C6)C7CC7] |  |  |  |  | 1780 nM | 16 m | 30 µg/mL (≈ 63.4 µM) | 188.5 1e-6 cm/s |
| O=C1CCc2ccc(-c3cn(C4CC4)c4nccc(N[S+](=O)([O-])c5ccn(C6CC6)n5)c34)cc21 [NCGC00650070, [O-][S+](=O)(NC1=C2C(=CN(C3CC3)C2=NC=C1)C4=CC5=C(CCC5=O)C=C4)C6=NN(C=C6)C7CC7] | 13.2 min | 38.5 µg/mL (≈ 81.3 µM) | 256 ×10⁻⁶ cm/s |  | 966 nM |  |  |  |
